Data on 23 compounds can be found in patent US20250346597A1, “CONDENSED HETEROCYCLIC COMPOUNDS AS INHIBITOR OF DIACYLGLYCEROL KINASES” (BEONE MEDICINES I GMBH, priority 2023, published 2025).

One test has as its target DGKζ (Homo sapiens (Human), UniProt Q13574). Put plainly: Biochemical DGK IC50 assay (ADP-Glo, lipid micelle substrate), DGKζ. To be noted: full length DGKζ 0.5 nM, ATP 140 μM, DAG 80 μM. The method in brief:
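ADP-Glo luminescence measured ADP made in a 1 h room-temperature reaction. The enzyme was Sf9-expressed, purified full-length human DGKζ, and the substrate was DAG/PS micelles. Assay buffer held 50 mM HEPES, 10 mM MgCl2, 0.01 mM CaCl2, 0.1 mM Na3VO4 and 0.01% BSA. IC50 was derived from activity inhibition over a compound concentration series.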

A further test addresses DGKα (Homo sapiens (Human), UniProt P23743). Put plainly: Biochemical DGK IC50 assay (ADP-Glo, lipid micelle substrate), DGKα. Further: full length DGKα 7.5 nM. To be noted: full length DGKα […], ATP 140 μM, DAG 80 μM. In a few lines:
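Luminescent ADP-Glo detection followed a 1 h room-temperature reaction of full-length DGKα on DAG/PS micelles, in HEPES buffer with 10 mM MgCl2, 0.01 mM CaCl2, 0.1 mM Na3VO4, BSA and Tween-20. IC50 derived from inhibition across increasing compound concentrations.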

DGKζ, sequence (Q13574 other isoform, or with tags, fused parts or gaps): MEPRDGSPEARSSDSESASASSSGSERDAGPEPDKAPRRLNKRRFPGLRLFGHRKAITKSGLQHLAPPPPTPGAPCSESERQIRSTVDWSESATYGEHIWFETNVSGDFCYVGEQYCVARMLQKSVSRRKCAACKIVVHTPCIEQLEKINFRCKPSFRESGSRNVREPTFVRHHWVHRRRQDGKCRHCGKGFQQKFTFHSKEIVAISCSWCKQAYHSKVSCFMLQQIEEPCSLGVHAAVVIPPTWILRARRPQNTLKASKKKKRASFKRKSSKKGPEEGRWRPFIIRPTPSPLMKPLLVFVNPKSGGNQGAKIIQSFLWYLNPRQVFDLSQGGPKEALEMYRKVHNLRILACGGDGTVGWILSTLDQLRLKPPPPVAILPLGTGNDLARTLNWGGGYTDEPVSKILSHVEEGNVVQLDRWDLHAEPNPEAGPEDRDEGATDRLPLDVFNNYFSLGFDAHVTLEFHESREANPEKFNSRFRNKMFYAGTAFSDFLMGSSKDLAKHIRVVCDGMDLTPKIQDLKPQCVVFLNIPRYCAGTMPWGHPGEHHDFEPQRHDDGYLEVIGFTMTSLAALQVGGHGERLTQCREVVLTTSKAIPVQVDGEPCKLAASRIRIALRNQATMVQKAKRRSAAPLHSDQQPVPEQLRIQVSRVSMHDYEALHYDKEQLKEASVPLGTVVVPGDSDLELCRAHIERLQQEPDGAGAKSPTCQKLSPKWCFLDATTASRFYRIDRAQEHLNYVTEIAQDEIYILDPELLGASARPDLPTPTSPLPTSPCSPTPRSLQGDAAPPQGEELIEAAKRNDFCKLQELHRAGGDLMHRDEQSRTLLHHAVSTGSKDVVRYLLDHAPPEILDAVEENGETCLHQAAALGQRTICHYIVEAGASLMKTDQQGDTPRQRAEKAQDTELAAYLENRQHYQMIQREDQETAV
DGKα, sequence (P23743 whole entry): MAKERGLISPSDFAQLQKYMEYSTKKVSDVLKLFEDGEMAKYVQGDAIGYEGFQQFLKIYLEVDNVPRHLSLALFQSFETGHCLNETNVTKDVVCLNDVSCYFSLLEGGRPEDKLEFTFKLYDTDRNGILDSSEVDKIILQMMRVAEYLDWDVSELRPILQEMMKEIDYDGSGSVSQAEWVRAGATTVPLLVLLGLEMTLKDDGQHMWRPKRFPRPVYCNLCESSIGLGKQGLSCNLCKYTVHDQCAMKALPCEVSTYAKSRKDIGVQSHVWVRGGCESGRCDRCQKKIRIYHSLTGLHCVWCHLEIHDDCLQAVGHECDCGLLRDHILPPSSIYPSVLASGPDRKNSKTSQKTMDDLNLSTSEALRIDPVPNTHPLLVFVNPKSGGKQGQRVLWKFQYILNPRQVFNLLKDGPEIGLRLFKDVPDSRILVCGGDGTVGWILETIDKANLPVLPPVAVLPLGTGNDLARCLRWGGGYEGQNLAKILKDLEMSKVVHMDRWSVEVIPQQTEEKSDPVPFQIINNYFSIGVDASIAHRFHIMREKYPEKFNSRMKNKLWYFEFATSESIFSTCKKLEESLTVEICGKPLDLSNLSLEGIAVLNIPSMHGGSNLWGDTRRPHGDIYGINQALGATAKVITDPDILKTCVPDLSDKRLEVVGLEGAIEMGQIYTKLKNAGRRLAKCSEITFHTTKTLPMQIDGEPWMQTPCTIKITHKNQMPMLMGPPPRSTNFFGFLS

In the case of `CC[C@H]1CN(C(C)c2ccc(CN(C)C)cc2)[C@H](CC)CN1c1cc(=O)n(C)c2cn(CC#N)nc12` (stereo partly drawn) [Compound A28, 2-(7-((2S,5R)-4-(1-(4-((dimethylamino)methyl)phenyl)ethyl)-2,5-diethylpiperazin-1-yl)-4-methyl-5-oxo-4,5-dihydro-2H-pyrazolo[4,3-b]pyridin-2-yl)acetonitrile], the half-maximal inhibitory concentration (IC50) at DGKζ stood at 4830 nM; against DGKα it was 10000 nM.
The like results for `CC[C@H]1CN(C(C)c2ccc(CNC)cc2)[C@H](CC)CN1c1cc(=O)n(C)c2cn(CC#N)nc12` (stereo partly drawn) [Compound A29, 2-(7-((2S,5R)-2,5-diethyl-4-(1-(4-((methylamino)methyl)phenyl)ethyl)piperazin-1-yl)-4-methyl-5-oxo-4,5-dihydro-2H-pyrazolo[4,3-b]pyridin-2-yl)acetonitrile] were, in that order, 3930 nM and 2600 nM.
On to `CC[C@H]1CN(C(C)c2ccc(-c3cn(C)nn3)cc2)[C@H](CC)CN1c1cc(=O)n(C)c2cn(CC#N)nc12` (stereo partly drawn) [Compound A30, 2-(7-((2S,5R)-2,5-diethyl-4-(1-(4-(1-methyl-1H-1,2,3-triazol-4-yl)phenyl)ethyl)piperazin-1-yl)-4-methyl-5-oxo-4,5-dihydro-2H-pyrazolo[4,3-b]pyridin-2-yl)acetonitrile], for which the IC50 turned out to be 3690 nM against DGKζ and 666 nM against DGKα.
For `CC[C@H]1CN(C(C)c2ccc(C(C)C)cc2)[C@H](CC)CN1c1cc(=O)n(C)c2cn(CC#N)nc12` (stereo partly drawn) [Compound A31, 2-(7-((2S,5R)-2,5-diethyl-4-(1-(4-isopropylphenyl)ethyl)piperazin-1-yl)-4-methyl-5-oxo-4,5-dihydro-2H-pyrazolo[4,3-b]pyridin-2-yl)acetonitrile], the IC50 was 213 nM at DGKζ and 615 nM at DGKα.
`CC[C@H]1CN(C(C)c2ccc(OC3CC3)cc2)[C@H](CC)CN1c1cc(=O)n(C)c2cn(CC#N)nc12` (stereo partly drawn) [Compound A32, 2-(7-((2S,5R)-4-(1-(4-cyclopropoxyphenyl)ethyl)-2,5-diethylpiperazin-1-yl)-4-methyl-5-oxo-4,5-dihydro-2H-pyrazolo[4,3-b]pyridin-2-yl)acetonitrile]: the IC50 is 244 nM against DGKζ and 183 nM on DGKα.
The like results for `CC[C@H]1CN([C@H](C)c2ccc(OC(C)C)cc2)[C@H](CC)CN1c1cc(=O)n(C)c2cn(CC#N)nc12` [Compound A33a] were, in that order, 45 nM and 49 nM.
As for `CC[C@H]1CN([C@@H](C)c2ccc(OC(C)C)cc2)[C@H](CC)CN1c1cc(=O)n(C)c2cn(CC#N)nc12` [Compound A33b], the half-inhibitory concentration (IC50) was 770 nM at DGKζ and 344 nM against DGKα.
Take `CC[C@H]1CN(C(C)c2ccc(OC3CC3)nc2)[C@H](CC)CN1c1cc(=O)n(C)c2cn(CC#N)nc12` (stereo partly drawn) [Compound A37, 2-(7-((2S,5R)-4-(1-(6-cyclopropoxypyridin-3-yl)ethyl)-2,5-diethylpiperazin-1-yl)-4-methyl-5-oxo-4,5-dihydro-2H-pyrazolo[4,3-b]pyridin-2-yl)acetonitrile]: the half-inhibitory concentration (IC50) is 202 nM against DGKζ and 541 nM against DGKα.
On to `CC[C@H]1CN(C(C)c2ccc(OC)nc2)[C@H](CC)CN1c1cc(=O)n(C)c2cn(CC#N)nc12` (stereo partly drawn) [Compound A41, 2-(7-((2S,5R)-2,5-diethyl-4-(1-(6-methoxypyridin-3-yl)ethyl)piperazin-1-yl)-4-methyl-5-oxo-4,5-dihydro-2H-pyrazolo[4,3-b]pyridin-2-yl)acetonitrile], for which the half-inhibitory concentration (IC50) is 151 nM on DGKζ and 347 nM against DGKα.
As to `CC[C@H]1CN(C(C)c2ccc(C(F)(F)F)c(C)n2)[C@H](CC)CN1c1cc(=O)n(C)c2cn(CC#N)nc12` (stereo partly drawn) [Compound A50, 2-(7-((2S,5R)-2,5-diethyl-4-(1-(6-methyl-5-(trifluoromethyl)pyridin-2-yl)ethyl)piperazin-1-yl)-4-methyl-5-oxo-4,5-dihydro-2H-pyrazolo[4,3-b]pyridin-2-yl)acetonitrile], the IC50 at DGKζ worked out at 83 nM; against DGKα, 703 nM.
On the same counts, the results for `CC[C@H]1CN(C(C)c2ccc(C3CC3)cn2)[C@H](CC)CN1c1cc(=O)n(C)c2cn(CC#N)nc12` (stereo partly drawn) [Compound A52, 2-(7-((2S,5R)-4-(1-(5-cyclopropylpyridin-2-yl)ethyl)-2,5-diethylpiperazin-1-yl)-4-methyl-5-oxo-4,5-dihydro-2H-pyrazolo[4,3-b]pyridin-2-yl)acetonitrile] are 99 nM and 118 nM.
On to `CC[C@H]1CN(C(C)c2ncc(C)cc2C)[C@H](CC)CN1c1cc(=O)n(C)c2cn(CC#N)nc12` (stereo partly drawn) [Compound A53, 2-(7-((2S,5R)-4-(1-(3,5-dimethylpyridin-2-yl)ethyl)-2,5-diethylpiperazin-1-yl)-4-methyl-5-oxo-4,5-dihydro-2H-pyrazolo[4,3-b]pyridin-2-yl)acetonitrile], for which the IC50 at DGKζ worked out at 331 nM; on DGKα, 4490 nM.
In the case of `CC[C@H]1CN(C(C)c2ccc(OC)c(C)n2)[C@H](CC)CN1c1cc(=O)n(C)c2cn(CC#N)nc12` (stereo partly drawn) [Compound A55, 2-(7-((2S,5R)-2,5-diethyl-4-(1-(5-methoxy-6-methylpyridin-2-yl)ethyl)piperazin-1-yl)-4-methyl-5-oxo-4,5-dihydro-2H-pyrazolo[4,3-b]pyridin-2-yl)acetonitrile], the 50% inhibitory concentration (IC50) on DGKζ was determined as 653 nM; on DGKα it was 2340 nM.
The like results for `CC[C@H]1CN(C(C)c2ccc(C)c(COC)n2)[C@H](CC)CN1c1cc(=O)n(C)c2cn(CC#N)nc12` (stereo partly drawn) [Compound A56, 2-(7-((2S,5R)-2,5-diethyl-4-(1-(6-(methoxymethyl)-5-methylpyridin-2-yl)ethyl)piperazin-1-yl)-4-methyl-5-oxo-4,5-dihydro-2H-pyrazolo[4,3-b]pyridin-2-yl)acetonitrile] were, in that order, 271 nM and 2580 nM.
Regarding `CC[C@H]1CN(C(C)c2ncc(C3CC3)cc2C)[C@H](CC)CN1c1cc(=O)n(C)c2cn(CC#N)nc12` (stereo partly drawn) [Compound A57, 2-(7-((2S,5R)-4-(1-(5-cyclopropyl-3-methylpyridin-2-yl)ethyl)-2,5-diethylpiperazin-1-yl)-4-methyl-5-oxo-4,5-dihydro-2H-pyrazolo[4,3-b]pyridin-2-yl)acetonitrile], the concentration for half-maximal inhibition (IC50) on DGKζ came to 51 nM; against DGKα, 14300 nM.
On to `CC[C@H]1CN(C(C)c2ccc(C3CC3)c(C)n2)[C@H](CC)CN1c1cc(=O)n(C)c2cn(CC#N)nc12` (stereo partly drawn) [Compound A58, 2-(7-((2S,5R)-4-(1-(5-cyclopropyl-6-methylpyridin-2-yl)ethyl)-2,5-diethylpiperazin-1-yl)-4-methyl-5-oxo-4,5-dihydro-2H-pyrazolo[4,3-b]pyridin-2-yl)acetonitrile], for which the concentration for half-maximal inhibition (IC50) at DGKζ was 94 nM; at DGKα it was 487 nM.
For the compound `CC[C@H]1CN(C(C)c2ccc(OC)cn2)[C@H](CC)CN1c1cc(=O)n(C)c2cn(CC#N)nc12` (stereo partly drawn) [Compound A59, 2-(7-((2S,5R)-2,5-diethyl-4-(1-(5-methoxypyridin-2-yl)ethyl)piperazin-1-yl)-4methyl-5-oxo-4,5-dihydro-2H-pyrazolo[4,3-b]pyridin-2-yl)acetonitrile], the 50% inhibitory concentration (IC50) stood at 536 nM against DGKζ and 137 nM against DGKα.
Take `CC[C@H]1CN(C(C)c2ncc(OC)cc2C)[C@H](CC)CN1c1cc(=O)n(C)c2cn(CC#N)nc12` (stereo partly drawn) [Compound A60, 2-(7-((2S,5R)-2,5-diethyl-4-(1-(5-methoxy-3-methylpyridin-2-yl)ethyl)piperazin-1-yl)-4-methyl-5-oxo-4,5-dihydro-2H-pyrazolo[4,3-b]pyridin-2-yl)acetonitrile]: the half-inhibitory concentration (IC50) is 643 nM on DGKζ and 38000 nM on DGKα.
In the case of `CC[C@H]1CN(C(C)c2ccc(COC)cn2)[C@H](CC)CN1c1cc(=O)n(C)c2cn(CC#N)nc12` (stereo partly drawn) [Compound A61, 2-(7-((2S,5R)-2,5-diethyl-4-(1-(5-(methoxymethyl)pyridin-2-yl)ethyl)piperazin-1-yl)-4-methyl-5-oxo-4,5-dihydro-2H-pyrazolo[4,3-b]pyridin-2-yl)acetonitrile], the half-maximal inhibitory concentration (IC50) turned out to be 298 nM on DGKζ and 143 nM at DGKα.
Turning to `CC[C@H]1CN(C(C)c2ccc(C3CC3)c(F)n2)[C@H](CC)CN1c1cc(=O)n(C)c2cn(CC#N)nc12` (stereo partly drawn) [Compound A62, 2-(7-((2S,5R)-4-(1-(5-cyclopropyl-6-fluoropyridin-2-yl)ethyl)-2,5-diethylpiperazin-1-yl)-4-methyl-5-oxo-4,5-dihydro-2H-pyrazolo[4,3-b]pyridin-2-yl)acetonitrile], the IC50 against DGKζ came to 154 nM; against DGKα, 21 nM.
In the case of `CC[C@H]1CN(C(C)c2cc(F)c(C3CC3)cn2)[C@H](CC)CN1c1cc(=O)n(C)c2cn(CC#N)nc12` (stereo partly drawn) [Compound A63, 2-(7-((2S,5R)-4-(1-(5-cyclopropyl-4-fluoropyridin-2-yl)ethyl)-2,5-diethylpiperazin-1-yl)-4-methyl-5-oxo-4,5-dihydro-2H-pyrazolo[4,3-b]pyridin-2-yl)acetonitrile], the figures for the half-inhibitory concentration (IC50) at DGKζ and against DGKα were 21 nM and 167 nM, respectively.
Consider `CC[C@H]1CN(C(C)c2cc3c(cc2F)OC(C)(C)CO3)[C@H](CC)CN1c1cc(=O)n(C)c2cn(CC#N)nc12` (stereo partly drawn) [Compound A64, 2-(7-((2S,5R)-2,5-diethyl-4-(1-(7-fluoro-2,2-dimethyl-2,3-dihydrobenzo[b][1,4]dioxin-6-yl)ethyl)piperazin-1-yl)-4-methyl-5-oxo-4,5-dihydro-2H-pyrazolo[4,3-b]pyridin-2-yl)acetonitrile], for which the IC50 is 7.8 nM against DGKζ and 1040 nM on DGKα.
For `CC[C@H]1CN(C(C)c2ccc3c(c2)CCC3)[C@H](CC)CN1c1cc(=O)n(C)c2cn(CC#N)nc12` (stereo partly drawn) [Compound A65, 2-(7-((2S,5R)-4-(1-(2,3-dihydro-1H-inden-5-yl)ethyl)-2,5-diethylpiperazin-1-yl)-4-methyl-5-oxo-4,5-dihydro-2H-pyrazolo[4,3-b]pyridin-2-yl)acetonitrile], the IC50 against DGKζ is 66 nM; against DGKα, 295 nM.
